Laboratory results as given in ChEMBL document CHEMBL1201862, “PubChem BioAssay data set” (2004).
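Grown in 96-well plates, cells were treated for 48 hours with each compound at five concentrations. Insufficient inhibition: endpoint recorded as highest concentration tested. GI50 = concentration required for 50% inhibition of growth.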 Calls of active or inactive are those of the source. Cut-off read from the data, not from the text of the source: active = GI50 up to about 1.1 µM and inactive = higher. *1 amine or outer side, *2 acyl side, *3 side chain or, on linkers, in order; H or OH if unused. Where a SMILES comes first, the peptide text is derived from it. Bridges are numbered along the chain shown (N, C = ends). Roman numbers before positions name the chains, in order. [ ]: non-standard residue; d: D form. Actinocin(9to1) = Cc1c2oc3c(C)ccc(C(=O)[*:1])c3nc-2c(C(=O)[*:2])c(N)c1=O; Hyp = O=C(O)[CH]1C[CH](O)CN1; NMeV = CN[CH](C(=O)O)C(C)C; Sar = CNCC(=O)O

Assays:
Experiment in all cases: NCI tumour cell line growth inhibition, 48 h
Malme-3M = tested on: Malme-3M
NCI-H522 = tested on: NCI-H522
SW-620 = tested on: SW-620
IGROV-1 = tested on: IGROV-1
UO-31 = tested on: UO-31
BT-549 = tested on: BT-549
MCF7 = tested on: MCF7
SK-MEL-2 = tested on: SK-MEL-2
NCI/ADR-RES = tested on: NCI/ADR-RES
A549 = tested on: A549
SK-OV-3 = tested on: SK-OV-3
NCI-H23 = tested on: NCI-H23
SNB-19 = tested on: SNB-19
HOP-92 = tested on: HOP-92
TK-10 = tested on: TK-10
DU-145 = tested on: DU-145
MDA-MB-231 = tested on: MDA-MB-231
MDA-MB-435 = tested on: MDA-MB-435
T47D = tested on: T47D
LOX IMVI = tested on: LOX IMVI

Row | SMILES | GI50 (Malme-3M) | GI50 (NCI-H522) | GI50 (SW-620) | GI50 (IGROV-1) | GI50 (UO-31) | GI50 (BT-549) | GI50 (MCF7) | GI50 (SK-MEL-2) | GI50 (NCI/ADR-RES) | GI50 (A549) | GI50 (SK-OV-3) | GI50 (NCI-H23) | GI50 (SNB-19) | GI50 (HOP-92) | GI50 (TK-10) | GI50 (DU-145) | GI50 (MDA-MB-231) | GI50 (MDA-MB-435) | GI50 (T47D) | GI50 (LOX IMVI)
1 | Nc1ccc2nc3n(c2c1)C(=O)c1ccccc1-3 | > 100 µM (inactive) | > 100 µM (inactive) | > 100 µM (inactive) | > 100 µM (inactive) | > 100 µM (inactive) | > 100 µM (inactive) | > 100 µM (inactive) | > 100 µM (inactive) | > 100 µM (inactive) | > 100 µM (inactive) | > 100 µM (inactive) | > 100 µM (inactive) | > 100 µM (inactive) | > 100 µM (inactive) | > 100 µM (inactive) | > 100 µM (inactive) |  |  |  | 
2 | C1=N\CCOCC/N=C\c2ccc(cc2)OCc2cccc(n2)COc2ccc/1cc2 | > 100 µM (inactive) | > 100 µM (inactive) | > 100 µM (inactive) | > 100 µM (inactive) | > 100 µM (inactive) | > 100 µM (inactive) | 85.5 µM (inactive) | > 100 µM (inactive) | > 100 µM (inactive) | > 100 µM (inactive) | > 100 µM (inactive) | > 100 µM (inactive) | > 100 µM (inactive) | > 100 µM (inactive) | > 100 µM (inactive) | > 100 µM (inactive) | 54.6 µM (inactive) | > 100 µM (inactive) |  | 
3 | Cc1ccc(S(=O)(=O)NC2C(=O)c3ccccc3C(=O)C2n2ccnc2)cc1 (configuration not stated) |  | < 0.01 µM (active) | > 100 µM (inactive) | > 100 µM (inactive) | > 100 µM (inactive) |  | > 100 µM (inactive) | > 100 µM (inactive) | > 100 µM (inactive) | > 100 µM (inactive) | > 100 µM (inactive) | 25.4 µM (inactive) | > 100 µM (inactive) | 35.8 µM (inactive) | > 100 µM (inactive) | 17 µM (inactive) | 16 µM (inactive) | 17.9 µM (inactive) | 17.5 µM (inactive) | 12.2 µM (inactive)
4 | COc1ccc(NC(=O)CC/C(CC(=O)c2ccco2)=N/NC(N)=S)cc1 | > 100 µM (inactive) | > 100 µM (inactive) | > 100 µM (inactive) | > 100 µM (inactive) | > 100 µM (inactive) |  |  | > 100 µM (inactive) |  | > 100 µM (inactive) | > 100 µM (inactive) | > 100 µM (inactive) | > 100 µM (inactive) | > 100 µM (inactive) | > 100 µM (inactive) |  |  |  |  | > 100 µM (inactive)
5 | COc1ccc2nc3ccccc3c(NCCCCCCN(C)CCCl)c2c1 | 0.82 µM (active) | 0.242 µM (active) | 0.0583 µM (active) | 0.163 µM (active) | 1.36 µM (inactive) |  |  | 0.293 µM (active) |  | 0.297 µM (active) | 0.664 µM (active) | 0.175 µM (active) | 1.17 µM (inactive) | 0.158 µM (active) | 1.32 µM (inactive) |  |  |  |  | 0.162 µM (active)
6 | O=C(OC[C@H]1C[C@H]2C(=O)CCC[C@H]2O1)c1ccccc1 |  | > 100 µM (inactive) | > 100 µM (inactive) | > 100 µM (inactive) | > 100 µM (inactive) |  | > 100 µM (inactive) | > 100 µM (inactive) | > 100 µM (inactive) | > 100 µM (inactive) | > 100 µM (inactive) | > 100 µM (inactive) | > 100 µM (inactive) | > 100 µM (inactive) | > 100 µM (inactive) | > 100 µM (inactive) | > 100 µM (inactive) | > 100 µM (inactive) | > 100 µM (inactive) | > 100 µM (inactive)
7 | Cc1nc2ccccc2c(=O)n1NC(=O)c1ccccc1O |  | > 100 µM (inactive) | > 100 µM (inactive) | > 100 µM (inactive) | > 100 µM (inactive) | > 100 µM (inactive) | > 100 µM (inactive) |  |  | > 100 µM (inactive) | > 100 µM (inactive) | > 100 µM (inactive) | > 100 µM (inactive) | > 100 µM (inactive) | > 100 µM (inactive) | > 100 µM (inactive) | > 100 µM (inactive) | > 100 µM (inactive) |  | > 100 µM (inactive)
8 | CCOC(=O)C(C)NC(=O)NC12CC3CC(CC(F)(C3)C1)C2 (configuration not stated) | 63 µM (inactive) | 65.2 µM (inactive) | > 100 µM (inactive) | > 100 µM (inactive) | 40.2 µM (inactive) |  |  | > 100 µM (inactive) |  | > 100 µM (inactive) | > 100 µM (inactive) | > 100 µM (inactive) | > 100 µM (inactive) | 11.5 µM (inactive) | > 100 µM (inactive) |  |  |  |  | > 100 µM (inactive)
9 | Cn1ccnc1CCc1ccc(Cl)cc1Cl | > 100 µM (inactive) | > 100 µM (inactive) | > 100 µM (inactive) | > 100 µM (inactive) | 49.5 µM (inactive) |  |  | > 100 µM (inactive) |  | > 100 µM (inactive) | > 100 µM (inactive) | > 100 µM (inactive) | > 100 µM (inactive) | 49.9 µM (inactive) | > 100 µM (inactive) |  |  |  |  | > 100 µM (inactive)
10 | COc1ccc(OC)c(/C=N/N=C2\C(=O)Nc3c(Cl)cc(Cl)cc32)c1 | > 100 µM (inactive) |  | 43.4 µM (inactive) | 34.3 µM (inactive) | 41.6 µM (inactive) | 26.1 µM (inactive) | 46.1 µM (inactive) | 21.2 µM (inactive) | 20.2 µM (inactive) | > 100 µM (inactive) | 72.6 µM (inactive) | 48.4 µM (inactive) | > 100 µM (inactive) | 47.3 µM (inactive) | > 100 µM (inactive) |  | 34 µM (inactive) | 32.7 µM (inactive) |  | 47.6 µM (inactive)
11 | Cc1cc2c(=O)c3ccccc3oc2c(C#N)c1C | > 100 µM (inactive) |  | > 100 µM (inactive) | > 100 µM (inactive) | > 100 µM (inactive) |  | > 100 µM (inactive) |  | > 100 µM (inactive) | > 100 µM (inactive) | > 100 µM (inactive) | > 100 µM (inactive) | > 100 µM (inactive) | > 100 µM (inactive) | > 100 µM (inactive) | > 100 µM (inactive) |  |  | > 100 µM (inactive) | 
12 | Cc1cccc(NC(=O)/C(=N\N)C(c2cnc3ccc([N+](=O)[O-])cc3n2)[N+](=O)[O-])c1C (configuration not stated) | > 100 µM (inactive) | 40.2 µM (inactive) | > 100 µM (inactive) | > 100 µM (inactive) | > 100 µM (inactive) |  |  | > 100 µM (inactive) |  | > 100 µM (inactive) | > 100 µM (inactive) | > 100 µM (inactive) | > 100 µM (inactive) | > 100 µM (inactive) | > 100 µM (inactive) |  |  |  |  | 74.8 µM (inactive)
13 | O=S(=O)(O)c1cc(O)c(/N=N/c2ccc(O)cc2O)c2ccccc12 | 76.4 µM (inactive) | 24.1 µM (inactive) | 86.3 µM (inactive) | 22.8 µM (inactive) |  |  |  | > 100 µM (inactive) | 38.6 µM (inactive) | 59.3 µM (inactive) | 49.1 µM (inactive) |  | > 100 µM (inactive) | > 100 µM (inactive) | > 100 µM (inactive) |  | 85.7 µM (inactive) | 51.3 µM (inactive) |  | 53.1 µM (inactive)
14 | O=CC12c3ccccc3C(c3ccccc31)C1C(=O)NC(=O)C12 (configuration not stated) | 90.2 µM (inactive) | 53 µM (inactive) | > 100 µM (inactive) | 37.2 µM (inactive) | 44.7 µM (inactive) |  | 0.953 µM (active) | > 100 µM (inactive) | > 100 µM (inactive) | > 100 µM (inactive) | > 100 µM (inactive) | > 100 µM (inactive) | > 100 µM (inactive) | > 100 µM (inactive) | > 100 µM (inactive) | > 100 µM (inactive) | > 100 µM (inactive) | > 100 µM (inactive) | 75.3 µM (inactive) | 50.1 µM (inactive)
15 | CC(=O)O[C@H]1[C@@H]2[C@@H]3[C@@H](C[C@H]1C)[C@@H](C)CO[C@@]1(C)CC/C=C(/C)C[C@@H]2O[C@@H]31 | > 100 µM (inactive) | > 100 µM (inactive) | > 100 µM (inactive) | > 100 µM (inactive) | > 100 µM (inactive) |  |  | > 100 µM (inactive) |  | > 100 µM (inactive) | > 100 µM (inactive) | > 100 µM (inactive) | > 100 µM (inactive) | > 100 µM (inactive) | > 100 µM (inactive) |  |  |  |  | > 100 µM (inactive)
16 | Cc1c2oc3c(C)ccc(C(=O)NC4C(=O)NC(C(C)C)C(=O)N5CC(O)CC5C(=O)N(C)CC(=O)N(C)C(C(C)C)C(=O)OC4C)c3nc-2c(C(=O)NC2C(=O)NC(C(C)C)C(=O)N3CC(O)CC3C(=O)N(C)CC(=O)N(C)C(C(C)C)C(=O)OC2C)c(N)c1=O (configuration not stated) (I: TV[Hyp][Sar][NMeV] / II: TV[Hyp][Sar][NMeV]; ester I:1-I:C, II:1-II:C; linker I:N-II:N via Actinocin(9to1); configuration not given here) | > 1 µM (active) | 0.0522 µM (active) | > 1 µM (active) | > 1 µM (active) | > 1 µM (active) |  | > 1 µM (active) | > 1 µM (active) | > 1 µM (active) | > 1 µM (active) | > 1 µM (active) | > 1 µM (active) | > 1 µM (active) | > 1 µM (active) | > 1 µM (active) | > 1 µM (active) | > 1 µM (active) | > 1 µM (active) | > 1 µM (active) | > 1 µM (active)
